Like-named read-outs stand apart in the source and are kept apart here.

The results in this text go back to patent US9144238B2, “Active compound combinations” (BAYER INTELLECTUAL PROPERTY GMBH, priority 2011, dated 2015).

The test system of data set [1] is Venturia inaequalis. The data set can be described thus: Venturia test (apples)/preventive. In kind it is in vivo. Particulars: Venturia inaequalis, 240 h, read-out: Efficacy in % found; for pest or weed control at 25 ppm: Table 10, 25 ppm a.i.; for pest or weed control at 50 ppm: Table 11, 50 ppm a.i. As for the experimental part: (§1) To produce a suitable preparation of active compound, 1 part by weight of active compound is mixed with the stated amounts of solvent and emulsifier, and the concentrate is diluted with water to the desired concentration.
To test for preventive activity, young plants are sprayed with the preparation of active compound at the stated rate of application. After the spray coating has dried on, the plants are inoculated with an aqueous conidia suspension of the causal agent of apple scab (Venturia inaequalis) and then remain for 1 day in an incubation cabinet at approximately 20° C. and a relative atmospheric humidity of 100%.
The plants are then placed in a greenhouse at approximately 21° C. and a relative atmospheric humidity of approximately 90%.
(§2) The test is evaluated 10 days after the inoculation. 0% means an efficacy which corresponds to that of the untreated control, while an efficacy of 100% means that no disease is observed.

For data set [2], the system named is Sphaerotheca fuliginea. The data set can be described thus: Sphaerotheca test (cucumbers)/preventive. The data set is classed as in vivo. As for the experimental part:
as §1
To test for preventive activity, young plants are sprayed with the preparation of active compound at the stated rate of application. After the spray coating has dried on, the plants are inoculated with an aqueous spore suspension of Sphaerotheca fuliginea. The plants are then placed in a greenhouse at approximately 23° C. and a relative atmospheric humidity of approximately 70%.
The test is evaluated 7 days after the inoculation. 0% means an efficacy which corresponds to that of the untreated control, while an efficacy of 100% means that no disease is observed.
as §2

For data set [3], the system named is Botrytis cinerea. As to the kind of experiment: Botrytis test (beans)/preventive. The data set is classed as in vivo. As for the experimental part:
as §1
To test for preventive activity, young plants are sprayed with the preparation of active compound. After the spray coating has dried on, 2 small pieces of agar covered with growth of Botrytis cinerea are placed on each leaf. The inoculated plants are placed in a darkened chamber at 20° C. and a relative atmospheric humidity of 100%.
2 days after the inoculation, the size of the lesions on the leaves is evaluated. 0% means an efficacy which corresponds to that of the untreated control, while an efficacy of 100% means that no disease is observed.
as §2

Data set [4] deals with Phytophthora infestans. The data set can be described thus: whole plant or invertebrate. In kind it is in vivo. The conditions noted are these: Phytophthora infestans, 72 h, tomatoes; for pest or weed control at 10 ppm: 10 ppm a.i.; for pest or weed control at 0.01 ppm: 0.01 ppm a.i.; for pest or weed control at 0.0025 ppm: 0.0025 ppm a.i.; for pest or weed control at 0.005 ppm: 0.005 ppm a.i.

For data set [5], the system named is Alternaria solani. The data set can be described thus: whole plant or invertebrate. The data set is classed as in vivo. The conditions noted are these: for Efficacy in % found: in vivo.
A short description of data set [6]: physchem.
Experimental: (§3) Measurement of log P values was performed according EEC directive 79/831 Annex V.A8 by HPLC (High Performance Liquid
(§4) Chromatography) on reversed phase columns with the following methods:
(§5) ^[a]Measurement was done at pH 2.3 with 0.1% phosphoric acid and acetonitrile as eluent.
For data set [7] the following is noted: pH 2.3.
Experimental: as §3, §4, §5
[8] abbreviates: read-out: Efficacy in % found, Table 2.
[9] abbreviates: Alternaria solani, 72 h, read-out: Efficacy in % found.
Setting [10] is: read-out: Efficacy in % found, Table 3.
Where [11] appears, read: read-out: Efficacy in % found, Table 1.
The mark [12] stands for this setting: read-out: Efficacy in % found, Table 4.
Setting [13] is: read-out: Efficacy in % found, Table 5.

Take `O=C(Nc1ccccc1-c1ccc(Cl)cc1)c1cccnc1Cl` [2.2, boscalid]: the pest or weed control at 12.5 ppm in data set [1] (Table 10, 12.5 ppm a.i.) was found to be 66%. The “Efficacy in % found” value in data set [2] (Table 13, 25 ppm a.i.) is on record as 67%.
Take `N#Cc1c(Cl)c(Cl)c(Cl)c(C#N)c1Cl` [5.4, chlorothalonil]: the “Efficacy in % found” value in data set [3] (Table 12, 5 ppm a.i.) worked out at 8%.
As to `O=C1c2ccccc2C(=O)N1SC(Cl)(Cl)Cl` [5.16, folpet], the pest or weed control at 5 ppm in data set [4] (read-out: Efficacy in % found, Table 2, 5 ppm a.i.) turned out to be 3%; in data set [5] (setting [9]), 21%. The pest or weed control at 10 ppm in data set [4] (setting [8]) was 3%; in data set [1] (Table 11, 10 ppm a.i.) it was 43%. Moreover, in data set [3] (Table 12, 10 ppm a.i.), the “Efficacy in % found” value turned out to be 31%.
For the compound `Cc1cc(C)nc(Nc2ccccc2)n1` [7.7, pyrimethanil], the pest or weed control at 10 ppm in data set [4] (setting [10]) was 10%. For the same compound, the pest or weed control at 20 ppm in data set [5] (setting [9]) is 4%. Moreover, in data set [3] (Table 12, 10 ppm a.i.), the “Efficacy in % found” value is given as 15%.
For orientation: chromatographic logP means lipophilicity estimated from chromatographic retention. Read a high chromatographic logP as a more lipophilic compound. For `C#CCOc1ccccc1C1CC(c2csc(C3CCN(C(=O)Cn4nc(C(F)F)cc4C(F)F)CC3)n2)=NO1` (stereo not drawn) [(I-1), 2-[3,5-bis(difluoromethyl)-1H-pyrazol-1-yl]-1-[4-(4-{5-[2-(prop-2-yn-1-yloxy)phenyl]-4,5-dihydro-1,2-oxazol-3-yl}-1,3-thiazol-2-yl)piperidin-1-yl]ethanone], the pest or weed control at 0.01 ppm in data set [4] (setting [11]) came to 0%; in data set [4] (setting [8]), 42%; in data set [4] (setting [10]), 29%; in data set [4] (setting [12]), 15%. Besides, the pest or weed control at 0.0025 ppm in data set [4] (setting [8]) stood at 52%; in data set [4] (setting [13]), 64%. Besides, the pest or weed control at 50 ppm in data set [5] (setting [9]) was found to be 21%; in data set [1], 0%. Besides, the pest or weed control at 100 ppm in data set [5] (setting [9]) was 0%; in data set [1] (Table 10, 100 ppm a.i.), 8%; in data set [1] (Table 11, 100 ppm a.i.), 0%. The pest or weed control at 25 ppm in data set [1] was found to be 0%. For the same compound, the “Efficacy in % found” value in data set [3] (Table 12, 25 ppm a.i.) is given as 15%; in data set [3] (Table 12, 50 ppm a.i.) it was 15%; in data set [2] (Table 13, 50 ppm a.i.), 0%. Moreover, the results for the chromatographic logP in data set [6] (pH 2.7) and in data set [6] (pH 7.8) were 3.24 and 3.34, respectively.
As for `C#CCOc1cccc(F)c1C1CC(c2csc(C3CCN(C(=O)Cn4nc(C(F)F)cc4C(F)F)CC3)n2)=NO1` (stereo not drawn) [(I-5), 2-[3,5-bis(difluoromethyl)-1H-pyrazol-1-yl]-1-[4-(4-{5-[2-fluoro-6-(prop-2-yn-1-yloxy)phenyl]-4,5-dihydro-1,2-oxazol-3-yl}-1,3-thiazol-2-yl)piperidin-1-yl]ethanone], the pest or weed control at 0.01 ppm in data set [4] (setting [11]) amounted to 62%. Moreover, the pest or weed control at 0.005 ppm in data set [4] (setting [8]) turned out to be 43%. Moreover, the pest or weed control at 50 ppm in data set [5] (setting [9]) was found to be 15%; in data set [1] it was 0%. The “Efficacy in % found” value came to 29% in data set [5]; 10% in data set [3] (Table 12, 25 ppm a.i.); 38% in data set [3] (Table 12, 100 ppm a.i.). The pest or weed control at 100 ppm in data set [1] (Table 11, 100 ppm a.i.) was 0%. Besides, the values for the chromatographic logP in data set [6] (pH 2.7) and in data set [6] (pH 7.8) were 3.15 and 3.18, respectively.
For `C#CCOc1cccc(Cl)c1C1CC(c2csc(C3CCN(C(=O)Cn4nc(C(F)F)cc4C(F)F)CC3)n2)=NO1` (stereo not drawn) [(I-6), 2-[3,5-bis(difluoromethyl)-1H-pyrazol-1-yl]-1-[4-(4-{5-[2-chloro-6-(prop-2-yn-1-yloxy)phenyl]-4,5-dihydro-1,2-oxazol-3-yl}-1,3-thiazol-2-yl)piperidin-1-yl]ethanone], in data set [4] (setting [12]), the pest or weed control at 0.005 ppm came to 35%. In data set [4] (setting [13]), the pest or weed control at 0.0025 ppm worked out at 73%. The pest or weed control at 25 ppm in data set [5] (setting [9]) was found to be 30%; in data set [1] it was 0%. In addition, the pest or weed control at 50 ppm is 35% in data set [5] (setting [9]) and 13% in data set [1]. Further, the pest or weed control at 100 ppm is 41% in data set [5] (setting [9]); 4% in data set [1] (Table 10, 100 ppm a.i.); 38% in data set [1] (Table 11, 100 ppm a.i.). The “Efficacy in % found” value is on record as 29% in data set [5] and 0% in data set [2] (Table 13, 50 ppm a.i.). Also, the chromatographic logP in data set [6] (pH 2.7) came to 3.4; in data set [7] it was 3.51.
`CC(C)(C)OC(=O)N1CCC(c2nc(C3=NOC(c4c(F)cc(O)cc4F)C3)cs2)CC1` (stereo not drawn) [tert-butyl 4-{4-[5-(2,6-difluoro-4-hydroxyphenyl)-4,5-dihydro-1,2-oxazol-3-yl]-1,3-thiazol-2-yl}piperidine-1-carboxylate]: the chromatographic logP in data set [6] (pH 2.7) amounted to 3.24.
As for mancozeb [5.23], the “Efficacy in % found” value in data set [5] was 0%; in data set [3] (Table 12, 5 ppm a.i.) it was 0%.
